These results are taken from patent US11787791B2, “Inhibitors of VAP-1” (ACUCELA INC., priority 2018, dated 2023).

Holding throughout (type): biochemical
In one assay the target is rhMAO-A (Homo sapiens (Human), UniProt P21397). Kind of assay: MAO-A inhibition assay (modified Promega MAO-Glo). The following applies: substrate 10 μM, 1 hour at room temperature. Here is the method: (§1) The capability of compounds described herein to inhibit MAO was determined using a modified Promega MAO-Glo™ assay kit. The substrate ((4S)-4,5-dihydro-2-(6-hydroxybenzothiazolyl)-4-thiazolecarboxylic acid) was converted by MAO to produce methyl ester luciferin. The luciferin was then converted by luciferase to produce oxyluciferin and light. The light was measured using a luminescence setting on the plate reader. A standard curve was prepared by serially diluting luciferin in reaction buffer. The standard kit reaction buffer was used—100 mM HEPES (pH 7.5), 5% glycerol. The substrate was dispensed into the wells so that the final concentration for MAO-A inhibition assay would be 10 μM and MAO-B inhibition assay would be 1 μM. Inhibitors were diluted in DMSO to 4× and distributed to the appropriate wells. Clorgyline and Deprenyl served as positive controls. rhMAO-A and rhMAO-B were purchased from Sigma. MAO-A or MAO-B was added to the appropriate wells. The plate was incubated for 1 hour, at room temperature with gentle shaking (90 rpm). The detection agent was added at equal volume (48 μL detection agent to 48 μL reaction). The plate was incubated for 20 minutes, at room temperature with gentle shaking (90 rpm). The plate luminescence was read. Data processing was performed using Prism software.
Chain of rhMAO-A (P21397 whole entry): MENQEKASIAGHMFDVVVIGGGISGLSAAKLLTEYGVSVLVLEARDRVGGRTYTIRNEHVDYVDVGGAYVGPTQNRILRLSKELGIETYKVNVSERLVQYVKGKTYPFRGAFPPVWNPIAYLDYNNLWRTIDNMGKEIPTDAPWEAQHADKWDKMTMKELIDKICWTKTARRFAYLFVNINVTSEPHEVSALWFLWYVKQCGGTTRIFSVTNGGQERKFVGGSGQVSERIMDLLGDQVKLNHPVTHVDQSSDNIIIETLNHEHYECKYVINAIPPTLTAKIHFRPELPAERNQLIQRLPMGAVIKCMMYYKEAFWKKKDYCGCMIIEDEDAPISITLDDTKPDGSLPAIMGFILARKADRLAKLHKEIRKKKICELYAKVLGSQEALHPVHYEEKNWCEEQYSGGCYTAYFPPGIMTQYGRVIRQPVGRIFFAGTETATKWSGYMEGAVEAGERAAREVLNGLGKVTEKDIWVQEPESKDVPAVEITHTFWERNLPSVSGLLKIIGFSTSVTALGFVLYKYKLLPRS
(§2) The capability of compounds described herein to inhibit MAO was determined using a modified Promega MAO-Glo™ assay. Test compounds, substrate and enzyme were incubated per manufacturer instructions for 1 hour, at room temperature with gentle shaking (90 rpm) before addition of detection agent. The detection agent was added at equal volume (48 μL detection agent to 48 μL reaction). The plate was incubated for 20 minutes, at room temperature with gentle shaking (90 rpm). The plate luminescence was read. Data processing was performed using Prism software.

A further assay concerns the target rhMAO-B (Homo sapiens (Human), UniProt P27338). Briefly: MAO-B inhibition assay (modified Promega MAO-Glo). Here is the method:
as §1, §2

For the next assay, the target named is rhVAP-1 (Homo sapiens (Human), UniProt Q16853). Briefly: VAP-1 fluorometric assay (Amplex Red/HRP, H2O2 from oxidative deamination of benzylamine). The following applies: rhVAP-1, 50 μM benzylamine, 30 minutes at 37° C., pH 7.4. Here is the method: The capability of compounds described herein to inhibit the enzymatic activity of vascular adhesion protein-1 (VAP-1) was determined by fluorometric assay. The assay procedure provided by R&D Systems was modified slightly for use as an inhibitor screening assay. The assay measured the H2O2 generated from the oxidative deamination of benzylamine by rhVAP-1 by converting Amplex® Red to the fluorescent product, resorufin, via horseradish peroxidase (HRP) and H2O2. Reaction buffer was 10 mM NaHCO3, pH 7.4. A standard curve was prepared by serially diluting H2O2 in reaction buffer. A 10 μM solution of resorufin was prepared in reaction buffer and was dispensed to 2 wells. These wells served as positive control for maximum fluorescence. Reaction buffer was added to the individual wells so that the final volume in each well was 100 μL. Amplex Red was diluted to 1 mM in reaction buffer. A 10 U stock of HRP was prepared in reaction buffer. A reaction cocktail was prepared by mixing equal parts 1 mM Amplex Red with 10 U HRP with 3 parts reaction buffers. The reaction cocktail was added to the appropriate wells, so that that final concentration in the well was 0.05 mM Amplex Red and 0.5 U HRP. A 200 μM solution of benzylamine was prepared in reaction buffer. Benzylamine was added to the appropriate wells so that the final concentration was 50 μM. Inhibitors were diluted in DMSO to 20× and distributed to the appropriate wells. UP-1207 served a positive control. rhVAP-1 was purchased from R&D Systems. The concentration used for each lot was determined so that the activity was equal to the first lot. […] The plate was read at […]. […]
Chain of rhVAP-1 (Q16853 whole entry): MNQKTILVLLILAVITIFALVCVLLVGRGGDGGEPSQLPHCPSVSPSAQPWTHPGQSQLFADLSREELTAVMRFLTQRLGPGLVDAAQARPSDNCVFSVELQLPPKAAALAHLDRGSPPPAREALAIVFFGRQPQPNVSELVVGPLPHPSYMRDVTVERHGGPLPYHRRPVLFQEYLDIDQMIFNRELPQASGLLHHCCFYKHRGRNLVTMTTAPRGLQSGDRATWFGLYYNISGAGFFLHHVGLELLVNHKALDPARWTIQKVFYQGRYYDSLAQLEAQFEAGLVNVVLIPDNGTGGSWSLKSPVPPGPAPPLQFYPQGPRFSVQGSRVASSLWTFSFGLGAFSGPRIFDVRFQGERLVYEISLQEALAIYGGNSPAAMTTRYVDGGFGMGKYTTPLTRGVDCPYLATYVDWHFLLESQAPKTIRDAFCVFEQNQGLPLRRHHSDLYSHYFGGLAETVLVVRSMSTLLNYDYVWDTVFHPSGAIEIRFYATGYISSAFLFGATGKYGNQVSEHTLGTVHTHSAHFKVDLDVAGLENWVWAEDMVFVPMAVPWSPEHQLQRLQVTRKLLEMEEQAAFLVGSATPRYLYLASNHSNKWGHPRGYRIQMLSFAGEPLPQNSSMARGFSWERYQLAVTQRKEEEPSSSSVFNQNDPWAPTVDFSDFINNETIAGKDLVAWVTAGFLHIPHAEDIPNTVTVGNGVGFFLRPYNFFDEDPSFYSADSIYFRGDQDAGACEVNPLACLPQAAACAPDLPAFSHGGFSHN
The capability of compounds described herein to inhibit the enzymatic activity of vascular adhesion protein-1 (VAP-1) was determined by fluorometric assay. […] The assay measured the H2O2 generated from the oxidative deamination of benzylamine by rhVAP-1 by converting Amplex® Red to the fluorescent product, resorufin, via horseradish peroxidase (HRP) and H2O2. […] The plate was read at 530/35 emission and 590/35 excitation. […]

The mark [1] stands for this setting: rhMAO-B, substrate 1 μM, 1 hour at room temperature, read-out: MAO B IC50.

Where two headings read alike, the source gives them in different places.

Chain of rhMAO-B (P27338 whole entry): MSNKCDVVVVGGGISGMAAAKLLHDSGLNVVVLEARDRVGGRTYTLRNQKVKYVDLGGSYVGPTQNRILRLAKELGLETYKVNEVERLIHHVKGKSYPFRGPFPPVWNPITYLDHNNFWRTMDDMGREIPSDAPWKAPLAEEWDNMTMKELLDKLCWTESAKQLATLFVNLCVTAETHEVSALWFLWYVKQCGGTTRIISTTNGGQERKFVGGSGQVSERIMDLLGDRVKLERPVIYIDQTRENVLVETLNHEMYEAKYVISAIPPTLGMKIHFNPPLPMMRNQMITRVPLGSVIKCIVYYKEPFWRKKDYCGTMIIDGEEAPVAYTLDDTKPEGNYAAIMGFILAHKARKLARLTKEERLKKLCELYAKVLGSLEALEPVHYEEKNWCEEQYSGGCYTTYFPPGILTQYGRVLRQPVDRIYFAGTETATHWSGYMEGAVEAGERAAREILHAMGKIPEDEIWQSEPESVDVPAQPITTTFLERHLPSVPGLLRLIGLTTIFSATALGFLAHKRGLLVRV

As usually defined, the IC50 is the midpoint of a concentration-inhibition curve. In the case of `CCCCn1nc2ccc(OC/C(=C\F)CN)cc2n1` [Example 66, (Z)-2-(((2-butyl-2H-benzo[d][1,2,3]triazol-5-yl)oxy)methyl)-3-fluoroprop-2-en-1-amine 4-methylbenzenesulfonate], the concentration for half-maximal inhibition (IC50) was 1000 to 10000 nM against rhMAO-A, 100 to 1000 nM at rhMAO-B and under 100 nM against rhVAP-1.

As for `CC1CCN(c2nc3ccc(OC/C(=C\F)CN)cc3o2)C1` (stereo not drawn) [Example 42, (Z)-3-fluoro-2-(((2-(3-methylpyrrolidin-1-yl)benzo[d]oxazol-6-yl)oxy)methyl)prop-2-en-1-amine 4-methylbenzenesulfonate], the figures for the IC50 against rhMAO-A, on rhMAO-B (setting [1]) and on rhVAP-1 were 1000 to 10000 nM, 1000 to 10000 nM and under 100 nM, respectively.

As to `CC1CCN(c2nc3ccc(OC/C(=C/F)CN)cc3o2)C1` (stereo not drawn) [Example 30, (E)-3-fluoro-2-(((2-(3-methylpyrrolidin-1-yl)benzo[d]oxazol-6-yl)oxy)methyl)prop-2-en-1-amine 4-methylbenzenesulfonate], the 50% inhibitory concentration (IC50) on rhMAO-A is 10000 to 30000 nM; on rhMAO-B (setting [1]) it was 100 to 1000 nM; against rhVAP-1 it was under 100 nM.
